Laboratory results published in publication PMC12445744, “Molecular docking to homology models of human and Trypanosoma brucei ERK8 that identified ortholog-specific inhibitors” (PLOS Neglected Tropical Diseases, 2025).
Values joined by “and” are separate entries in the source; they are usually repeats but may differ in a detail not shown here. Equal entries are not always repeated.

Biological target: T1, TbERK8 (Trypanosoma brucei brucei, UniProt Q38B88)
T1 sequence (Q38B88 1-442): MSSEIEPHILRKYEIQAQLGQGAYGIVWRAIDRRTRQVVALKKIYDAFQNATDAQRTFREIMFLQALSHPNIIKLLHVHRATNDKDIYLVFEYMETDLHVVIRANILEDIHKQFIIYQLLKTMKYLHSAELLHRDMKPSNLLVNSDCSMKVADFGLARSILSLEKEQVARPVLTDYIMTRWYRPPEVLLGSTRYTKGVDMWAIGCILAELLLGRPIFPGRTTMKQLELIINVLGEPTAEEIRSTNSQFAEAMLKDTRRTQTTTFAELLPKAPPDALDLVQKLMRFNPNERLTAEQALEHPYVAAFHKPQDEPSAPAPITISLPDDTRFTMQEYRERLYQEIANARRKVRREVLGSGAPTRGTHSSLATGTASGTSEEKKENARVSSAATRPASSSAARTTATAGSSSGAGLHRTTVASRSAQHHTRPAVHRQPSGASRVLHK
Experiment: Luciferase-based kinase inhibition assay (ATP luminescence), GST-tagged TbERK8 with MBP substrate
Format: biochemical
Set-up: raw luminescence, TbERK8: unit of the concentration uncertain
Conditions: for raw luminescence, TbERK8: sheet Kinase_glo_080924_IFPS (2), replicate wells, listed as Ida
Procedure: Escherichia coli strain Rosetta 2 (DE3) (Cat# 71397, MilliporeSigma, Burlington, MA) was transformed with the plasmid pGEX2T expressing the full-length hERK8 coding region or pGSTAg expressing the full-length TbERK8 coding region. One liter of Terrific Broth media containing 100 μg/ml Ampicillin and 30 μg/ml chloramphenicol in 2 L baffled flasks was inoculated with 25 mL from an overnight culture of Rosetta 2 strains harboring either the pGEX2T-hERK8 or pGSTAg-TbERK8 plasmid. Two baffled flasks were inoculated with each overnight strain and incubated and shaken at 175 RPM in a New Brunswick Innova 44R Incubator Shaker (Fischer Scientific, Pittsburgh, PA) at 37 °C until the cultures reached an O.D.600 of 0.94. Once the cultures in the flask reached the target O.D.600, the flasks were cooled to 4 °C in an ice water bath. The cooled cultures were induced by adding isopropyl β-D-1-thiogalactopyranoside (IPTG) to a final concentration of 0.1 mM and shaken at 16 °C for 16 hours at 175 RPM in a New Brunswick Innova 44R Incubator Shaker (Fischer Scientific, Pittsburgh, PA). On the next day, the cultures were pelleted by centrifugation at 9000 xg in a JLA 10.500 rotor (Beckman Coulter; Brea, CA), and the media was decanted. The pellet was flash-frozen in liquid nitrogen and then thawed on ice. The thawed pellet was resuspended in lysis buffer (25 mM Tris, 75 mM NaCl, 0.5% TritonX-100 and 0.5% Nonidet P-40, 1 mM phenylmethanesulfonyl fluoride, 1 mM benzamidine⋅HCl) and lysed using a microfluidizer M-110P from Microfluidics (Westwood, MA). The crude lysates were clarified by centrifugation at 140,000 xg in a 45Ti rotor (Beckman Coulter, Brea, CA) for 30 min at 4°C. The clarified lysate was loaded by gravity to a 3 mL glutathione agarose resin column (Cat# G-250–10, GOLDBIO, St. Louis, MO) formed in a 1.5 × 20 cm glass chromatography column (Cat# 7371522, Bio-Rad, Hercules, CA). The column was washed with 30 mL of PBS (pH 7.4) containing 1 mM DTT. Elution buffer (50 mM Tris buffer pH 8.0 containing 10 mM reduced glutathione and 1 mM DTT was added to the washed column), and 1 mL fractions were collected by gravity and examined by SDS-PAGE stained by Coomassie dye. Peak fractions pooled from the elution were dialyzed (4x 1:500 dilutions) in kinase buffer (30 mM Tris, pH 7.4, 10 mM MgCl2, 1 mM DTT, 5% glycerol).
We performed kinase assays in buffer K (30 mM Tris pH 7.4, 10 mM MgCl2, 1 mM DTT, 5% glycerol, 50 μM ATP, and 0.1 mg/mL BSA) at 30°C for 30 min in 30 μL reactions. GST-tagged HsERK8 and TbERK8 were tested using myelin basic protein (MBP) (Cat# 13–110, Millipore, Darmstadt, Germany) as the substrate at increasing concentrations to determine the optimal activity for the assay. ATP consumption was determined by adding equal volumes of the kinase assay reagent (Promega, Cat# V5601, Madison, WI) following the manufacturer’s protocol. Luminescence was measured using the microplate reader (SpectraMax L, Molecular Devices, Sunnyvale, CA).
These compounds were screened for kinase inhibition utilizing a luciferase-based assay. Briefly, the kinases were tested using MBP as the substrate at a 14-fold molar excess in 384-well flat-bottom white plates (BRANDTECH Scientific, Cat# 781681, Essex, CT). These compounds were tested at concentrations ranging from […] to 150 nM. The kinases plus MBP substrate reactions were incubated with each inhibitor for 30 minutes at 30°C. Equal volumes of kinase assay mix Promega (Cat# V5601, Madison, WI) were added to the kinase/inhibitor reaction after 30 minutes, following the manufacturer’s protocol. ATP luminescence was measured using a microplate reader (SpectraMax L, Molecular Devices, Sunnyvale, CA). IC50 values were calculated from assays done in triplicate by fitting the data using Prism 8.1.1 (GraphPad).

CC(=O)[C@]1(O)Cc2c(O)c3c(c(O)c2[C@@H](O[C@H]2C[C@H](N)[C@H](O)[C@H](C)O2)C1)C(=O)c1ccccc1C3=O [Idarubicin]
raw luminescence, TbERK8 (0.00015 (unit uncertain) compound): 2715.27 RLU and 2728.74 RLU and 2394.11 RLU | raw luminescence, TbERK8 (0.00061 (unit uncertain) compound): 1071.28 RLU and 918.564 RLU and 956.744 RLU | raw luminescence, TbERK8 (0.00244 (unit uncertain) compound): 1109.46 RLU and 1118.45 RLU and 925.302 RLU | raw luminescence, TbERK8 (0.00977 (unit uncertain) compound): 992.678 RLU and 972.465 RLU and 952.252 RLU | raw luminescence, TbERK8 (0.03906 (unit uncertain) compound): 1019.63 RLU and 976.957 RLU and 1073.53 RLU | raw luminescence, TbERK8 (0.15625 (unit uncertain) compound): 1318.33 RLU and 1147.64 RLU and 1078.02 RLU | raw luminescence, TbERK8 (0.62500 (unit uncertain) compound): 2223.42 RLU and 1980.86 RLU and 1909 RLU | raw luminescence, TbERK8 (2.50000 (unit uncertain) compound): 2212.19 RLU and 2209.94 RLU and 2311.01 RLU | raw luminescence, TbERK8 (10.00000 (unit uncertain) compound, signal = ATP left): 619.862 RLU and 786.057 RLU and 752.369 RLU | inhibitory effect on kinase activity of TbERK8 (concentrations below 4.0 x10^-5 M (above this the red compound blocked luminescence)): no detectible (n/d) inhibitory effect
